From ChEMBL document CHEMBL4017477, “Synthesis and evaluation of 4,6-disubstituted pyrimidines as CNS penetrant pan-muscarinic antagonists with a novel chemotype” (Bioorg Med Chem Lett, 2017)

Key:
[1] = target: T1, Muscarinic acetylcholine receptor M5 (Homo sapiens, UniProt P08912); assay: Antagonist activity at recombinant human M5 receptor expressed in CHO cells co-expressing Gqi5 by calcium mobilization assay; format: functional, cell-based
T1 sequence (P08912 whole entry): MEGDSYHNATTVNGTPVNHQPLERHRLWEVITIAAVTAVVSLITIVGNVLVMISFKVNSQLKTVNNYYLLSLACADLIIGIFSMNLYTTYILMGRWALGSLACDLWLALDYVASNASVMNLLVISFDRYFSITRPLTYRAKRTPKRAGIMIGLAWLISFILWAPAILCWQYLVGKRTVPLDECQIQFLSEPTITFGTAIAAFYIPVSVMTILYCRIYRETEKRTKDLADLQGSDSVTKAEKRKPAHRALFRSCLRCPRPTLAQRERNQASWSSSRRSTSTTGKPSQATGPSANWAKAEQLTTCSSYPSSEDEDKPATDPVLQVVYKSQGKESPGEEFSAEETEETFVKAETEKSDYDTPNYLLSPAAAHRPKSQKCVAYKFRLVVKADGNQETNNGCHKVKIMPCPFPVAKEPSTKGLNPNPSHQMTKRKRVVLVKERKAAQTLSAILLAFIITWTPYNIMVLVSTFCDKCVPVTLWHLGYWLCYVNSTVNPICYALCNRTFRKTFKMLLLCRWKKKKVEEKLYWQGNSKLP

[2] = Brain to plasma partition coefficient, Kp of the compound in rat; format: ADME
[3] = target: T2, Muscarinic acetylcholine receptor M4 (Homo sapiens, UniProt P08173); assay: Antagonist activity at recombinant human M4 receptor expressed in CHO cells co-expressing Gqi5 by calcium mobilization assay; format: functional, cell-based
T2 sequence (P08173 whole entry): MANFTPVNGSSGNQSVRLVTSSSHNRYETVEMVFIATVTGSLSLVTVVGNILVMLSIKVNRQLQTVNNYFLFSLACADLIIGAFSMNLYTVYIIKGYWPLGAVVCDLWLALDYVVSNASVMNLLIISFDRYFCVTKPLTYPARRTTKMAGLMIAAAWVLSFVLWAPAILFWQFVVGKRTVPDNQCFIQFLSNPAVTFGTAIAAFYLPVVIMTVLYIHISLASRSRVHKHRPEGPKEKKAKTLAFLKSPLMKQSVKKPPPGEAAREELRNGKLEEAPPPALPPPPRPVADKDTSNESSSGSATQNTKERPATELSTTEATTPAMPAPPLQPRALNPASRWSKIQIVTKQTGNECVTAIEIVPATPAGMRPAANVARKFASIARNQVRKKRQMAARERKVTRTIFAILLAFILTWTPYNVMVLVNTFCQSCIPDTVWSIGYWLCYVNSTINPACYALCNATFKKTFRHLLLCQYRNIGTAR

[4] = target: T3, Muscarinic acetylcholine receptor M4 (Homo sapiens) (UniProt P08173); assay: Antagonist activity at recombinant human M4 receptor expressed in CHO cells co-expressing Gqi5 by calcium mobilization assay relative to acetylcholine; format: functional, cell-based
T3 sequence (whole entry): T2 sequence (P08173 whole entry)

[5] = target: T4, Muscarinic acetylcholine receptor M1 (Homo sapiens, UniProt P11229); assay: Antagonist activity at recombinant human M1 receptor expressed in CHO cells co-expressing Gqi5 by calcium mobilization assay; format: functional, cell-based
T4 sequence (P11229 whole entry): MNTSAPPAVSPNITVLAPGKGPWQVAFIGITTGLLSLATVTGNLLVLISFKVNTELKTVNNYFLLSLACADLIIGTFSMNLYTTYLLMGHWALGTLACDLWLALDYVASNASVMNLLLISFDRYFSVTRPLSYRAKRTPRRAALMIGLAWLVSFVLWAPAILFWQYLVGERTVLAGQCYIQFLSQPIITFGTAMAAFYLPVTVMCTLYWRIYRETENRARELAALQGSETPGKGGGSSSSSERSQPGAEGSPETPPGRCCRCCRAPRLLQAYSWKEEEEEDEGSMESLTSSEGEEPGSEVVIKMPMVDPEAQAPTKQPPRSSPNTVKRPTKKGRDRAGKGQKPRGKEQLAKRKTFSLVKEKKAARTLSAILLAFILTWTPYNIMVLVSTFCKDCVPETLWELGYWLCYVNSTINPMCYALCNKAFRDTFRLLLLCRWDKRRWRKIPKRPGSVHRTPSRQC

[6] = target: T5, Muscarinic acetylcholine receptor M2 (Homo sapiens, UniProt P08172); assay: Antagonist activity at recombinant human M2 receptor expressed in CHO cells co-expressing Gqi5 by calcium mobilization assay; format: functional, cell-based
T5 sequence (P08172 whole entry): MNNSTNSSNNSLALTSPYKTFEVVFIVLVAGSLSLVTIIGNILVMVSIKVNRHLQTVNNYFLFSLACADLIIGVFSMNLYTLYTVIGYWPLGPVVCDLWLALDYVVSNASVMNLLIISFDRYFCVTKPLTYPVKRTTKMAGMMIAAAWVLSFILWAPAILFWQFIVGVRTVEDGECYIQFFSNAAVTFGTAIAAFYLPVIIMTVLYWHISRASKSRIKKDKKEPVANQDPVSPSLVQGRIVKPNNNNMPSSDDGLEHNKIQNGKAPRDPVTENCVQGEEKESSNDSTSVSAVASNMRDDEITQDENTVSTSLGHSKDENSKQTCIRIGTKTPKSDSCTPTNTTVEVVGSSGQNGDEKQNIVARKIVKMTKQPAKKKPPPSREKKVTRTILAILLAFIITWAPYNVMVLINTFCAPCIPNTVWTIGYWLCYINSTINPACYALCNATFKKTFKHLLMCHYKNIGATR

[7] = target: T6, Muscarinic acetylcholine receptor M3 (Homo sapiens, UniProt P20309); assay: Antagonist activity at recombinant human M3 receptor expressed in CHO cells co-expressing Gqi5 by calcium mobilization assay; format: functional, cell-based
Target sequence in this assay (P20309 whole entry): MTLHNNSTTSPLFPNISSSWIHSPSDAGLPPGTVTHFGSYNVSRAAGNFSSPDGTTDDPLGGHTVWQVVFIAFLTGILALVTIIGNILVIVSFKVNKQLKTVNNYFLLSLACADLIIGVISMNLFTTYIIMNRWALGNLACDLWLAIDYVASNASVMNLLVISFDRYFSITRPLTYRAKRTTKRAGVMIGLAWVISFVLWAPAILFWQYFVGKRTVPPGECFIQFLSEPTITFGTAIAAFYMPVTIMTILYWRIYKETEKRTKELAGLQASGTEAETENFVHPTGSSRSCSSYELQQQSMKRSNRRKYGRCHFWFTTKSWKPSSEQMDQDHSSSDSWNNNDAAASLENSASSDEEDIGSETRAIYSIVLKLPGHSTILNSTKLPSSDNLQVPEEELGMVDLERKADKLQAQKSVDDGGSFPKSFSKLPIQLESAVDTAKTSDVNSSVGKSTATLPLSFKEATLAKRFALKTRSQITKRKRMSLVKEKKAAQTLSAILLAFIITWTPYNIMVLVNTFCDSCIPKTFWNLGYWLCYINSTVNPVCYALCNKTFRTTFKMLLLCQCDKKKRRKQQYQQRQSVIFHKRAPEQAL

[8] = Ratio of unbound brain to plasma concentration in rat; format: ADME
[9] = target: T7, Muscarinic acetylcholine receptor M1 (Homo sapiens) (UniProt P11229); assay: Antagonist activity at recombinant human M1 receptor expressed in CHO cells co-expressing Gqi5 by calcium mobilization assay relative to acetylcholine; format: functional, cell-based
T7 sequence (whole entry): T4 sequence (P11229 whole entry)

[10] = target: T8, Muscarinic acetylcholine receptor M2 (Homo sapiens) (UniProt P08172); assay: Antagonist activity at recombinant human M2 receptor expressed in CHO cells co-expressing Gqi5 by calcium mobilization assay relative to acetylcholine; format: functional, cell-based
T8 sequence (whole entry): T5 sequence (P08172 whole entry)

[11] = target: T6, Muscarinic acetylcholine receptor M3; assay: Antagonist activity at recombinant human M3 receptor expressed in CHO cells co-expressing Gqi5 by calcium mobilization assay relative to acetylcholine; format: functional, cell-based
Target sequence in this assay (P20309 whole entry, looked up): as the sequence (P20309 whole entry) above

[12] = target: T9, Muscarinic acetylcholine receptor M5 (Homo sapiens) (UniProt P08912); assay: Antagonist activity at recombinant human M5 receptor expressed in CHO cells co-expressing Gqi5 by calcium mobilization assay relative to acetylcholine; format: functional, cell-based
T9 sequence (whole entry): T1 sequence (P08912 whole entry)

[13] = tested on: Plasma; assay: Unbound plasma concentration in rat; format: ADME, cell-free
[14] = tested on: Brain; assay: Unbound brain concentration in rat; format: ADME, tissue-based; settings: in vivo
[15] = target: T10, Muscarinic acetylcholine receptor M4 (Rattus norvegicus, UniProt P08485); assay: Antagonist activity at rat M4 receptor by calcium mobilization assay; format: functional
T10 sequence (P08485 whole entry): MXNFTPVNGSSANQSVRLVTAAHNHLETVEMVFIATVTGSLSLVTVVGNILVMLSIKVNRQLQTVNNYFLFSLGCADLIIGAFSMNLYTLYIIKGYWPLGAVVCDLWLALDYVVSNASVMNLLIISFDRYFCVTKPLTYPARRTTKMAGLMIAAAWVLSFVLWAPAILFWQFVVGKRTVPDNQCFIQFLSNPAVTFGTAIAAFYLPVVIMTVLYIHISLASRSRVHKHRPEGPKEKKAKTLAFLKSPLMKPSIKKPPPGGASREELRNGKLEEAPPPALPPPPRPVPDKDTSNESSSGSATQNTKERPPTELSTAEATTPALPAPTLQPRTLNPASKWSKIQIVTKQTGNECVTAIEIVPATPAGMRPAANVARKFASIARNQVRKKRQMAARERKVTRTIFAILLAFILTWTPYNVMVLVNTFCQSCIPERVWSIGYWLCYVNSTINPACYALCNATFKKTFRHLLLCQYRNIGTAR

[16] = target: T11, Muscarinic acetylcholine receptor M4 (Rattus norvegicus) (UniProt P08485); assay: Antagonist activity at rat M4 receptor by calcium mobilization assay relative to acetylcholine; format: functional
T11 sequence (whole entry): T10 sequence (P08485 whole entry)

[17] = tested on: Plasma; assay: Unbound plasma concentration in human; format: ADME, cell-free

Work on `O=C(C1CCN(c2cc(Oc3ccccc3F)ncn2)CC1)N1CCc2ccccc2C1` yielded an IC50 [1] of 732 nM, a Kp ([2]; brain/plasma, read-out: Kp) of 0.68 and an IC50 ([3]; read-out: IC50) of 130 nM. The IC50 ([3]; read-out: pIC50 (converted)) was 123 nM, the Emin [4] was 3.2% and the IC50 [5] was 322 nM. For the same compound, the IC50 [6] was 384 nM, the IC50 [7] was 404 nM and the Kp uu ([8]; brain/plasma, read-out: K(p,uu,brain)) was 0.75. The Emin [9] was less than 6%, the Emin [10] was less than 6% and the Emin [11] was less than 6%. For the same compound, the Emin [12] was less than 6%.

For `O=C(C1CCN(c2cc(Oc3ccc(F)cc3F)ncn2)CC1)N1CCc2cc(C(F)(F)F)ccc2C1`, the IC50 ([3]; read-out: IC50) was greater than 10000 nM.

Compound `O=C(C1CCN(c2cc(Oc3ccc(Cl)cc3F)ncn2)CC1)N1CCc2ccccc2C1` has an IC50 ([3]; read-out: IC50) of 150 nM and an Emin [4] of 3.1%.

`O=C(C1CCN(c2cc(Oc3ccc(F)cc3)ncn2)CC1)N1CCc2ccccc2C1` showed an IC50 ([3]; read-out: IC50) of 240 nM, an IC50 ([3]; read-out: pIC50 (converted)) of 229 nM and an Emin [4] of 3.5%.

`O=C(C1CCN(c2cc(Oc3ccccc3)ncn2)CC1)N1CCc2ccccc2C1` gave an IC50 ([3]; read-out: IC50) of 650 nM, an IC50 ([3]; read-out: pIC50 (converted)) of 617 nM and an Emin [4] of 2.7%.

For `CN(Cc1ccccc1)C(=O)C1CCN(c2cc(Oc3ccc(F)cc3F)ncn2)CC1`, the IC50 ([3]; read-out: IC50) was greater than 10000 nM.

`O=C(C1CCN(c2cc(Oc3ccc(Cl)cc3)ncn2)CC1)N1CCc2ccccc2C1` gave an IC50 [1] of 695 nM, an IC50 ([3]; read-out: IC50) of 140 nM and an IC50 ([3]; read-out: pIC50 (converted)) of 132 nM. For the same compound, the Emin [4] was 3%, the IC50 [5] was 313 nM and the IC50 [6] was 352 nM. The IC50 [7] was 365 nM, the Emin [9] was less than 6% and the Emin [10] was less than 6%. For the same compound, the Emin [11] was less than 6% and the Emin [12] was less than 6%.

For `Cc1ccc(Oc2cc(N3CCC(C(=O)N4CCc5ccccc5C4)CC3)ncn2)cc1`, the IC50 ([3]; read-out: IC50) was 310 nM and the Emin [4] was 3.3%.

For `O=C(C1CCN(c2cc(Oc3ccc(Cl)cc3Cl)ncn2)CC1)N1CCc2ccccc2C1`, the IC50 ([3]; read-out: IC50) was 270 nM and the Emin [4] was 3%.

With `O=C(C1CCN(c2cc(Oc3ccc(F)cc3F)ncn2)CC1)N1CCC2CCCCC2C1` (configuration not stated) the IC50 ([3]; read-out: IC50) was 410 nM and the Emin [4] was 5.1%.

For `COc1ccc(Oc2cc(N3CCC(C(=O)N4CCc5ccccc5C4)CC3)ncn2)cc1`, the IC50 ([3]; read-out: IC50) was 460 nM and the Emin [4] was 5.3%.

Compound `CCc1ccc(Oc2cc(N3CCC(C(=O)N4CCc5ccccc5C4)CC3)ncn2)cc1` has an IC50 [1] of less than 1500 nM, a Fu [13] of 0.004 and a Kp [2] of 1.45. The Fu [14] was 0.001, the IC50 ([3]; read-out: IC50) was 380 nM and the IC50 ([3]; read-out: pIC50 (converted)) was 347 nM. For the same compound, the Emin [4] was 5.3%, the IC50 ([15]; read-out: IC50) was 590 nM and the IC50 ([15]; read-out: pIC50 (converted)) was 562 nM. It also gave an Emin [16] of 13.1%, an IC50 [5] of less than 1500 nM and an IC50 [6] of less than 1500 nM. The IC50 [7] was less than 1500 nM, the Fu [17] was 0.001 and the “K(p,uu,brain)” value ([8]; brain) was 0.36.
